Structures can show the parent of a compound that is named as a salt. *1 amine or outer side, *2 acyl side, *3 side chain or, on linkers, in order; H or OH if unused. Where a SMILES comes first, the peptide text is derived from it. Bridges are numbered along the chain shown (N, C = ends). [ ]: non-standard residue; d: D form. The star is where a group is joined. pTerphenylCO(4''-OnC5H11) = CCCCCOc1ccc(-c2ccc(-c3ccc(C(=O)*)cc3)cc2)cc1; Orn(4R-OH,5R-OH) = O=C([C@H](C[C@@H](O)[C@@H](O)N[*:3])N[*:1])[*:2]; hTyr(3S-OH,4S-OH) = N[C@H](C(=O)O)[C@H](O)[C@@H](O)c1ccc(O)cc1; Pro(3S-OH,4S-Me) = C[C@H]1CN[C@H](C(=O)O)[C@H]1O; Hyp = O=C(O)[C@@H]1C[C@@H](O)CN1
Assays:
[1] = test system: SARS-CoV-2 spike protein pseudovirus; experiment: microbe, parasite or virus in culture; assay type: cell-based; conditions: for activity at 10 µM: 293T/ACE2, 48 h, read-out: % Infectivity of SARS-2-Spike pv; for activity: 10 µM, read-out: % infectivity (Table S3, kite-shaped molecules in order of inhibition); for IC50: 293T/ACE2, read-out: IC50 of SARS-CoV-2-S pseudovirus infectivity
VSV-G pseudovirus = experiment: microbe, parasite or virus in culture; assay type: cell-based, vesicular stomatitis virus; conditions: for activity at 10 µM: Pseudovirus, 293T/ACE2, read-out: % Infectivity of VSV-G pv
in vitro = conditions: human
293T-ACE2 cells = conditions: for % viability (Table S3): 10 µM

## CCOC(=O)c1c(CSc2ccccc2)n(C)c2cc(Br)c(O)c(CN(C)C)c12 [Arbidol]
[1]
  activity at 10 µM: 18%
VSV-G pseudovirus
  activity at 10 µM: 62%

## CNC(=O)c1ccccc1Sc1ccc2c(/C=C/c3ccccn3)n[nH]c2c1 [Axitinib (AG 013736), Axitinib]
In vitro; % Viability of SARS-2-Spike pv
  viability: 69%
[1]
  activity at 10 µM: 1%
VSV-G pseudovirus
  activity at 10 µM: 2%

## C[C@]12CCC(=O)C=C1[C@@H]1C[C@@H]1[C@H]1[C@@H]3[C@@H]4C[C@@H]4[C@@]4(CCC(=O)O4)[C@@]3(C)CC[C@@H]12 [Drospirenone]
VSV-G pseudovirus
  activity at 10 µM: 381%

## COc1cc2c(Oc3ccc(NC(=O)C4(C(=O)Nc5ccc(F)cc5)CC4)cc3F)ccnc2cc1OCCCN1CCOCC1 [Foretinib (GSK1363089), Foretinib]
In vitro; % Viability of SARS-2-Spike pv
  viability: 63%
[1]
  activity at 10 µM: 10%
VSV-G pseudovirus
  activity at 10 µM: 11%

## c1cn2cc(-c3ccc4cn[nH]c4c3)nc(Nc3ccc(N4CCOCC4)cc3)c2n1 [GS-9973]
In vitro
  viability: 69%
[1]
  activity at 10 µM: 0%
VSV-G pseudovirus
  activity at 10 µM: 1%

## Cc1cc(Nc2cc(CN3CCOCC3)c3nc(C)c(Cc4ccc(Cl)cc4F)n3n2)n[nH]1 [LY2784544]
In vitro; % Viability of SARS-2-Spike pv
  viability: 76%
[1]
  activity at 10 µM: 2%
VSV-G pseudovirus
  activity at 10 µM: 1%

## COc1cc(Nc2ncc3c(n2)-c2ccc(Cl)cc2C(c2c(F)cccc2OC)=NC3)ccc1C(=O)O [MLN8237 (Alisertib), Alisertib]
In vitro
  viability at 10 µM: 63%
In vitro; % Viability of SARS-2-Spike pv
  viability: 63 to 83%
[1]
  activity at 10 µM: 15 to 18%
VSV-G pseudovirus
  activity at 10 µM: 18%

## CCC(=O)NCC[C@@H]1CCc2ccc3c(c21)CCO3 [Ramelteon]
In vitro
  viability at 10 µM: 99%

## Cc1cncc(CN2CCC(=C3c4ccc(Cl)cc4CCc4cccnc43)CC2)c1.O=C(O)/C=C/C(=O)O [Rupatadine Fumarate]
293T-ACE2 cells
  % viability (Table S3): 74%
[1]
  activity: 38%

## C[C@@H]1CCO[C@H]2Cn3cc(C(=O)NCc4ccc(F)cc4F)c(=O)c(O)c3C(=O)N12 [S/GSK1349572]
293T-ACE2 cells
  % viability (Table S3): 94%
[1]
  activity: 16.2%

## Nc1c2c(nc3ccccc13)CCCC2 [Tacrine hydrochloride]
In vitro; % viability (Table S3)
  viability at 10 µM: 97%

## CC1CCC2(OC1)OC1CC3C4CCC5CC(OC6OC(CO)C(O)C(O)C6OC6OC(CO)C(O)C(O)C6O)CCC5(C)C4CCC3(C)C1C2C (stereo not shown) [Timosaponin A3]
In vitro; % Viability of SARS-2-Spike pv
  viability: 55%
[1]
  activity at 10 µM: 5%
VSV-G pseudovirus
  activity at 10 µM: 85%

## Clc1ccc2c(c1)C(N1CCNCC1)=Nc1ccccc1O2 [amoxapine]
In vitro; % Viability of SARS-2-Spike pv
  viability: 103%
[1]
  activity at 10 µM: 20%
VSV-G pseudovirus
  activity at 10 µM: 95%

## CCCCCOc1ccc(-c2ccc(-c3ccc(C(=O)N[C@H]4C[C@@H](O)[C@@H](O)NC(=O)[C@@H]5[C@@H](O)[C@@H](C)CN5C(=O)[C@H]([C@@H](C)O)NC(=O)[C@H]([C@H](O)[C@@H](O)c5ccc(O)cc5)NC(=O)[C@@H]5C[C@@H](O)CN5C(=O)[C@H]([C@@H](C)O)NC4=O)cc3)cc2)cc1 [anidulafungin] ({pTerphenylCO(4''-OnC5H11)}-[Orn(4R-OH,5R-OH)]T[Hyp][hTyr(3S-OH,4S-OH)]T[Pro(3S-OH,4S-Me)]; lactam 1-C)
In vitro; % Viability of SARS-2-Spike pv
  viability: 109%
[1]
  activity at 10 µM: 19%
VSV-G pseudovirus
  activity at 10 µM: 125%

## CN1CCCC(n2nc(Cc3ccc(Cl)cc3)c3ccccc3c2=O)CC1 (stereo not shown) [azelastine HCl]
In vitro; % Viability of SARS-2-Spike pv
  viability: 98%
[1]
  activity at 10 µM: 4%
  IC50: 4.84 µM
VSV-G pseudovirus
  activity at 10 µM: 81%

## CC[C@H]1OC(=O)[C@H](C)[C@@H](O[C@H]2C[C@@](C)(OC)[C@@H](O)[C@H](C)O2)[C@H](C)[C@@H](O[C@@H]2O[C@H](C)C[C@H](N(C)C)[C@H]2O)[C@](C)(O)C[C@@H](C)CN(C)[C@H](C)[C@@H](O)[C@]1(C)O [azithromycin dihydrate]
In vitro; % Viability of SARS-2-Spike pv
  viability: 94%
[1]
  activity at 10 µM: 4%
VSV-G pseudovirus
  activity at 10 µM: 100%

## CN1[C@@H]2CC[C@H]1C[C@@H](OC(c1ccccc1)c1ccccc1)C2 [benztropine mesylate]
In vitro; % Viability of SARS-2-Spike pv
  viability: 96%
[1]
  activity at 10 µM: 10%
VSV-G pseudovirus
  activity at 10 µM: 93%

## COc1cc2c(Oc3ccc4[nH]c(C)cc4c3F)ncnc2cc1OCCCN1CCCC1 [cediranib (AZD217), cediranib]
In vitro; % Viability of SARS-2-Spike pv
  viability: 85%
[1]
  activity at 10 µM: 5%
VSV-G pseudovirus
  activity at 10 µM: 42%

## COc1ccc2cc1Oc1ccc(cc1)C[C@H]1c3c(cc4c(c3Oc3cc5c(cc3OC)CCN(C)[C@@H]5C2)OCO4)CCN1C [cepharanthine]
[1]
  activity at 10 µM: 1%
VSV-G pseudovirus
  activity at 10 µM: 1%

## CN(C)CCCN1c2ccccc2CCc2ccc(Cl)cc21 [clomipramine HCl]
In vitro; % Viability of SARS-2-Spike pv
  viability: 115%
[1]
  activity at 10 µM: 9%
VSV-G pseudovirus
  activity at 10 µM: 78%

## Cc1nc2c([nH]1)-c1ccccc1N(C(=O)c1ccc(NC(=O)c3ccccc3-c3ccccc3)cc1)CC2.Cl [conivaptan hcl]
293T-ACE2 cells
  % viability (Table S3): 102%
[1]
  activity: 52%

## CN(C)CCC=C1c2ccccc2C=Cc2ccccc21 [cyclobenzaprine HCl]
In vitro; % Viability of SARS-2-Spike pv
  viability: 101%
[1]
  activity at 10 µM: 9%
VSV-G pseudovirus
  activity at 10 µM: 81%

## CN1CCC(=C2c3ccccc3C=Cc3ccccc32)CC1 [cyproheptadine HCl]
In vitro; % Viability of SARS-2-Spike pv
  viability: 94%
[1]
  activity at 10 µM: 17%
VSV-G pseudovirus
  activity at 10 µM: 92%

## Clc1ccc2c(c1)CCc1cccnc1C2=C1CCNCC1 [desloratadine]
In vitro; % Viability of SARS-2-Spike pv
  viability: 99%
VSV-G pseudovirus
  activity at 10 µM: 82%

## CCc1cnn2c(NCc3ccc[n+]([O-])c3)cc(N3CCCC[C@H]3CCO)nc12 [dinaciclib]
In vitro; % Viability of SARS-2-Spike pv
  viability: 55%
[1]
  activity at 10 µM: 0%
VSV-G pseudovirus
  activity at 10 µM: 1%

## CN1CCC(OC(c2ccccc2)c2ccccc2)CC1 [diphenylpyraline HCl]
In vitro; % Viability of SARS-2-Spike pv
  viability: 106%
[1]
  activity at 10 µM: 15%
VSV-G pseudovirus
  activity at 10 µM: 108%

## COc1cc2c(cc1OC)CN(CCc1ccc(NC(=O)c3cccc4c(=O)c5cccc(OC)c5[nH]c34)cc1)CC2 [elacridar]
In vitro
  viability at 10 µM: 97%

## CCOC(=O)c1ncn2c1CN(C)C(=O)c1cc(F)ccc1-2 [flumazenil]
In vitro
  viability at 10 µM: 104%

## Cc1ccc(NC(=O)c2ccc(CN3CCN(C)CC3)cc2)cc1Nc1nccc(-c2cccnc2)n1 [imatinib mesylate, imatinib]
293T-ACE2 cells; human
  % Viability of SARS-2-Spike pv: 22%
[1]
  % Infectivity of SARS-2-Spike pv: 1%

## CN(C)CCCN1c2ccccc2CCc2ccccc21 [imipramine]
In vitro; % Viability of SARS-2-Spike pv
  viability: 99%
[1]
  activity at 10 µM: 16%
VSV-G pseudovirus
  activity at 10 µM: 84%

## NC(=O)N1CCC(CC(=O)N2CCC([C@H]3c4ncc(Br)cc4CCc4cc(Cl)cc(Br)c43)CC2)CC1 [lonafarnib]
In vitro
  viability at 10 µM: 111%

## CN1CCN2c3ccccc3Cc3ccccc3C2C1 (stereo not shown) [mianserin Hcl]
In vitro
  viability at 10 µM: 100%

## C=C1C(=O)[C@]23[C@H](O)[C@H]1CC[C@H]2[C@@]12CO[C@]3(O)[C@@H](O)[C@@H]1C(C)(C)CC[C@@H]2O [oridonin]
[1]
  activity at 10 µM: 9%
VSV-G pseudovirus
  activity at 10 µM: 37%

## CC(=O)c1c(C)c2cnc(Nc3ccc(N4CCNCC4)cn3)nc2n(C2CCCC2)c1=O.Cl [palbociclib HCl]
VSV-G pseudovirus
  % Infectivity of VSV-G pv: 63%

## CC(=O)c1c(C)c2cnc(Nc3ccc(N4CCNCC4)cn3)nc2n(C2CCCC2)c1=O [palbociclib isethionate]
VSV-G pseudovirus
  activity at 10 µM: 32%

## CC(C)COc1ccc(CNC(=O)N(Cc2ccc(F)cc2)C2CCN(C)CC2)cc1 [pimavanserin]
In vitro; % Viability of SARS-2-Spike pv
  viability: 70%
[1]
  activity at 10 µM: 3%
VSV-G pseudovirus
  activity at 10 µM: 72%

## CN1CCN(CCCN2c3ccccc3Sc3ccc(Cl)cc32)CC1 [prochlorperazine]
In vitro; % Viability of SARS-2-Spike pv
  viability: 94%
[1]
  activity at 10 µM: 16%
VSV-G pseudovirus
  activity at 10 µM: 80%

## CC(CN1c2ccccc2Sc2ccccc21)N(C)C (stereo not shown) [promethazine HCl]
In vitro; % Viability of SARS-2-Spike pv
  viability: 99%
[1]
  activity at 10 µM: 11%
VSV-G pseudovirus
  activity at 10 µM: 107%

## O=C(c1ccc(OCCN2CCCCC2)cc1)c1c(-c2ccc(O)cc2)sc2cc(O)ccc12 [raloxifene HCl]
In vitro; % Viability of SARS-2-Spike pv
  viability: 92%
[1]
  activity at 10 µM: 5%
  IC50: 5.76 µM
VSV-G pseudovirus
  activity at 10 µM: 65%

## O=C(O[C@H]1CN2CCC1CC2)N1CCc2ccccc2[C@@H]1c1ccccc1 [solifenacin succinate]
In vitro
  viability: 99%
[1]
  activity at 10 µM: 12%
VSV-G pseudovirus
  activity at 10 µM: 86%

## CC/C(=C(\c1ccccc1)c1ccc(OCCN(C)C)cc1)c1ccccc1 [tamoxifen citrate]
In vitro; % Viability of SARS-2-Spike pv
  viability: 107%
[1]
  activity at 10 µM: 10%
VSV-G pseudovirus
  activity at 10 µM: 81%

## CCOC(=O)c1ccc(C#Cc2ccc3c(c2)C(C)(C)CCS3)nc1 [tazarotene]
In vitro; % Viability of SARS-2-Spike pv
  viability: 107%
[1]
  activity at 10 µM: 225%
VSV-G pseudovirus
  activity at 10 µM: 102%

## COc1ccc2cc1Oc1ccc(cc1)C[C@H]1c3cc(c(OC)cc3CCN1C)Oc1c(OC)c(OC)cc3c1[C@H](C2)N(C)CC3 [tetrandrine]
[1]
  activity at 10 µM: 1%
VSV-G pseudovirus
  activity at 10 µM: 39%

## Cc1cn([C@H]2C[C@H](N=[N+]=[N-])[C@@H](CO)O2)c(=O)[nH]c1=O [zidovudine]
VSV-G pseudovirus
  % Infectivity of VSV-G pv: potently inhibited
